{"source": "paper PMC9116130", "about": "(Biochemical pharmacology, 2020)", "key": {"hNaV1.1": {"biological_target": "hNaV1.1 (Homo sapiens, UniProt P35498)", "experiment": "Two-electrode voltage-clamp on Xenopus laevis oocytes expressing NaV1.1"}, "rNaV1.2": {"biological_target": "rNaV1.2 (Rattus norvegicus, UniProt P04775)", "experiment": "Two-electrode voltage-clamp on Xenopus laevis oocytes expressing NaV1.2", "details": "for inhibition at 100 µM: read-out: Maximum % inhibition NaV1.2, peptide at 100 μM"}, "rNaV1.3": {"biological_target": "rNaV1.3 (Rattus norvegicus, UniProt P08104)", "sequence (P08104 whole entry)": "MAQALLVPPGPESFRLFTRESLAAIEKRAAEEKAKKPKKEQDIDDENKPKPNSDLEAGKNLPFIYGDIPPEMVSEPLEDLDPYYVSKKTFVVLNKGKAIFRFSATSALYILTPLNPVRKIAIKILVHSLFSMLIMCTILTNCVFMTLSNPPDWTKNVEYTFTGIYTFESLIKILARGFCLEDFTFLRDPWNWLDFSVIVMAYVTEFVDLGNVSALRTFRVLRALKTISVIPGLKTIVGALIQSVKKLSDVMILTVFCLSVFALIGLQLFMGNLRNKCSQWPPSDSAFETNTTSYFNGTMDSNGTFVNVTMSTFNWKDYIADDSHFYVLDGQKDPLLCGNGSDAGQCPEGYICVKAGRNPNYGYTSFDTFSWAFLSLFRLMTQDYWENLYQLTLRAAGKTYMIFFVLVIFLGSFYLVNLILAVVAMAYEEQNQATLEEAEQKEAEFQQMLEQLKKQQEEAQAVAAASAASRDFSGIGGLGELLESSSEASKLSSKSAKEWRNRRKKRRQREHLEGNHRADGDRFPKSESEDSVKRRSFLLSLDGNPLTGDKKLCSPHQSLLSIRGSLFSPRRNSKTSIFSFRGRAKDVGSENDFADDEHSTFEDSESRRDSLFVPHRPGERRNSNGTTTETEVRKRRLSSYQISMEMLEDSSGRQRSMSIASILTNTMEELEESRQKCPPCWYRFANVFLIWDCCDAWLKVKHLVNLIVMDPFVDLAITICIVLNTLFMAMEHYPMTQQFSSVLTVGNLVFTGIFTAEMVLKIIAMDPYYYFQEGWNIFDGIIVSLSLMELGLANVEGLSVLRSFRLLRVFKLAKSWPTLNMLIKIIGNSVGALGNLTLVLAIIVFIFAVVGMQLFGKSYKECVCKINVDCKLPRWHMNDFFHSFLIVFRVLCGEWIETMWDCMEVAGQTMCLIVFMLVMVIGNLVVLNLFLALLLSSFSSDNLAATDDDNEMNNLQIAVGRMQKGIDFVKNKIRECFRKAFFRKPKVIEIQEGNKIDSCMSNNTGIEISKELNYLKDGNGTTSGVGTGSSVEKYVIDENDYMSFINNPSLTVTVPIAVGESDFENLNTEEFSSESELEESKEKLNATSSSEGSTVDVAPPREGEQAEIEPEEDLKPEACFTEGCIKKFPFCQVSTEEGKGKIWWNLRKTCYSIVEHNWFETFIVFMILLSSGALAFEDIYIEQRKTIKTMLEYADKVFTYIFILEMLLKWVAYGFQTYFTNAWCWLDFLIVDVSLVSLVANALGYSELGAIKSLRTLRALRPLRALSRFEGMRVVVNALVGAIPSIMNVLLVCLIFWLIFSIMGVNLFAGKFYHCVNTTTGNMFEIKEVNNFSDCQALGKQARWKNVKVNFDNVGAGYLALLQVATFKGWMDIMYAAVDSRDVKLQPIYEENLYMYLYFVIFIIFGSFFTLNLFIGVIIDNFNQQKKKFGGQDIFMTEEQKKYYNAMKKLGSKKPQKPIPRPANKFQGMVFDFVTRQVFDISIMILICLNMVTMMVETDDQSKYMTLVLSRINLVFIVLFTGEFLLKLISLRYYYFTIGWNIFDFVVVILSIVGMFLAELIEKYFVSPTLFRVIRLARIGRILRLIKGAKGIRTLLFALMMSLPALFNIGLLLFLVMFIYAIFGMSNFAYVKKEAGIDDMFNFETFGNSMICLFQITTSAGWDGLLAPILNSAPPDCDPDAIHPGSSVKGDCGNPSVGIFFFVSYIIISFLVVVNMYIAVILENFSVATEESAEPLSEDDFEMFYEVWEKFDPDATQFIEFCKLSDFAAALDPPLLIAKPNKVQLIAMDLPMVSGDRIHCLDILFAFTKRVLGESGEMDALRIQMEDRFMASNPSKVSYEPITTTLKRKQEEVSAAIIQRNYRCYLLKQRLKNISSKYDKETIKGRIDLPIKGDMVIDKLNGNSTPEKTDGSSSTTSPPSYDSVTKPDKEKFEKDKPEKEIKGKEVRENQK", "sequence (Q00954 19-218 partner)": "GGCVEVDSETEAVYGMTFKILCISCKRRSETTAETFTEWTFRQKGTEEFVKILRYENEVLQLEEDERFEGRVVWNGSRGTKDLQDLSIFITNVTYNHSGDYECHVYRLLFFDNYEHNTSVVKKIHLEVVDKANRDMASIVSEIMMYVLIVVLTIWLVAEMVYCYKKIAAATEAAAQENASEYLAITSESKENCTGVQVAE", "experiment": "Two-electrode voltage-clamp on Xenopus laevis oocytes expressing NaV1.3"}, "rNaV1.4": {"biological_target": "rNaV1.4 (Rattus norvegicus, UniProt P15390)", "sequence (P15390 whole entry)": "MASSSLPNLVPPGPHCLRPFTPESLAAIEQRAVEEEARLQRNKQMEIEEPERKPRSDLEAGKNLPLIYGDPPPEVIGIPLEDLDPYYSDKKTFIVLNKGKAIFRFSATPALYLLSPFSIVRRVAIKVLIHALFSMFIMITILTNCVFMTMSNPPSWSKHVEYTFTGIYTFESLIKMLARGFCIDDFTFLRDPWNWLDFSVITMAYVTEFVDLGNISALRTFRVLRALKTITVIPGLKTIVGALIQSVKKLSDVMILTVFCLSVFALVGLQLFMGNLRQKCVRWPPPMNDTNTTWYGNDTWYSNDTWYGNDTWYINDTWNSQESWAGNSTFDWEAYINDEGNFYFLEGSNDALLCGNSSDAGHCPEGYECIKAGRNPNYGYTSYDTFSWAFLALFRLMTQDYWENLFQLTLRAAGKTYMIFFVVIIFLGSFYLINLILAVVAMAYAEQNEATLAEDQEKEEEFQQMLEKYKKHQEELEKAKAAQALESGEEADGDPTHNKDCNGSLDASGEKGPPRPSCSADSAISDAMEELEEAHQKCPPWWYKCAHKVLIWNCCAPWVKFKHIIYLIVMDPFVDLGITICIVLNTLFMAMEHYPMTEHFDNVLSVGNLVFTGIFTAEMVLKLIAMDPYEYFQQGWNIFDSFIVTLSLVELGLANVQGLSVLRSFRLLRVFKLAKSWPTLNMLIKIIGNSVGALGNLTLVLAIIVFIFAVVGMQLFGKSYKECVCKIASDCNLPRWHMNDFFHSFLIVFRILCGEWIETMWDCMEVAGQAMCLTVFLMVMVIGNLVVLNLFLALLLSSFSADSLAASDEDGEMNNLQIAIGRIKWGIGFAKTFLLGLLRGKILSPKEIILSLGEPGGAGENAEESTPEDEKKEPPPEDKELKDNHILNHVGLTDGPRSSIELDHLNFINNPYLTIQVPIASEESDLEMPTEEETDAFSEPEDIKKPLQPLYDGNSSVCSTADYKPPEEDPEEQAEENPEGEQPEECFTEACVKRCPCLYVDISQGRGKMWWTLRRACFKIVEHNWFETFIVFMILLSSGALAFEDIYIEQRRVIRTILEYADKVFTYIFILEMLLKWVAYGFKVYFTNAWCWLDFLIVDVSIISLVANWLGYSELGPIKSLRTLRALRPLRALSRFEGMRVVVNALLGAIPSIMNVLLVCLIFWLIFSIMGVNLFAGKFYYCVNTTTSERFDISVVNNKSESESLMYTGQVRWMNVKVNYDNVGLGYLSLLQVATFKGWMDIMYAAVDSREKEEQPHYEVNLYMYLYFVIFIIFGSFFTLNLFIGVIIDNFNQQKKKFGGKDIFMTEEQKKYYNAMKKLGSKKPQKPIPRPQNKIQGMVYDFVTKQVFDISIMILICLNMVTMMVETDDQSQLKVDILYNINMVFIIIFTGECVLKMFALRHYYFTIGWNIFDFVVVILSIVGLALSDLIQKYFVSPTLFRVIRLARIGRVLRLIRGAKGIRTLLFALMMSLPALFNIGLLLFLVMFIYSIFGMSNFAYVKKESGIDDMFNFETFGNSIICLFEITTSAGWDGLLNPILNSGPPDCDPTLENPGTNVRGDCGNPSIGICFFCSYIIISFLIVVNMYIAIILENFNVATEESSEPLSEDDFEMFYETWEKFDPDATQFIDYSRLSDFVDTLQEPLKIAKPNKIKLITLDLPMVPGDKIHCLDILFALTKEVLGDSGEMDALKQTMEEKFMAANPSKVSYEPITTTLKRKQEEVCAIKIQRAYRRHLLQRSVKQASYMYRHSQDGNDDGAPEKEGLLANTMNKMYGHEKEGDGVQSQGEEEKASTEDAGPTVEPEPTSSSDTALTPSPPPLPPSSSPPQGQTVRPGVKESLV", "sequence (Q00954 19-218, further chain)": "as the sequence (Q00954 19-218 partner) above", "experiment": "Two-electrode voltage-clamp on Xenopus laevis oocytes expressing NaV1.4", "details": "for inhibition at 100 µM: read-out: Maximum % inhibition NaV1.4, peptide at 100 μM"}, "hNaV1.5": {"biological_target": "hNaV1.5 (Homo sapiens, UniProt Q14524)", "experiment": "Two-electrode voltage-clamp on Xenopus laevis oocytes expressing NaV1.5", "details": "for inhibition at 100 µM: read-out: Maximum % inhibition NaV1.5"}, "mNaV1.6": {"biological_target": "mNaV1.6 (Mus musculus, UniProt Q9WTU3)", "experiment": "Two-electrode voltage-clamp on Xenopus laevis oocytes expressing NaV1.6", "details": "for inhibition at 100 µM: read-out: Maximum % inhibition NaV1.6, peptide at 100 μM"}, "rNaV1.7": {"biological_target": "rNaV1.7 (Rattus norvegicus, UniProt O08562)", "experiment": "Two-electrode voltage-clamp on Xenopus laevis oocytes expressing NaV1.7"}, "rNaV1.8": {"biological_target": "rNaV1.8 (Rattus norvegicus, UniProt Q62968)", "experiment": "Two-electrode voltage-clamp on Xenopus laevis oocytes expressing NaV1.8", "details": "for inhibition at 100 µM: read-out: Maximum % inhibition NaV1.8"}, "[1]": {"system": "NaV1.2, NaV1.4, NaV1.5 and NaV1.6", "details": "100 μM"}, "inflammatory pain models": {"system": "inflammatory pain models", "details": "in vivo; cited from earlier work"}}, "note": "Like-named read-outs stand apart in the source and are kept apart here. Where a SMILES comes first, the peptide text is derived from it. Bridges are numbered along the chain shown (N, C = ends).", "data": [{"compound": "C[C@@H]1NC(=O)[C@H](Cc2c[nH]c3ccccc23)NC(=O)[C@H](CCCNC(=N)N)NC(=O)[C@H](CCCNC(=N)N)NC(=O)[C@@H](N)CSSC[C@@H](C(N)=O)NC(=O)[C@H](CCCNC(=N)N)NC(=O)[C@H](CC(N)=O)NC(=O)[C@H](Cc2c[nH]c3ccccc23)NC(=O)[C@H](CCC(=O)O)NC1=O", "note": "[PnCS1[R6E], CRRWAEWNRC ^*] (H-CRRWAEWNRC-NH2; disulfide 1-10)", "values": [{"measurement": "IC50", "setting": "hNaV1.1", "result": "> 100", "unit": "µM"}, {"measurement": "IC50", "setting": "rNaV1.2", "result": "> 100", "unit": "µM"}, {"measurement": "inhibition at 100 µM", "setting": "rNaV1.2", "result": 49, "unit": "%"}, {"measurement": "IC50", "setting": "rNaV1.3", "result": "> 100", "unit": "µM"}, {"measurement": "IC50", "setting": "rNaV1.4", "result": "> 100", "unit": "µM"}, {"measurement": "inhibition at 100 µM", "setting": "rNaV1.4", "result": 0, "unit": "%"}, {"measurement": "IC50", "setting": "hNaV1.5", "result": "> 100", "unit": "µM"}, {"measurement": "inhibition at 100 µM", "setting": "hNaV1.5", "result": 19, "unit": "%"}, {"measurement": "IC50", "setting": "mNaV1.6", "result": "> 100", "unit": "µM"}, {"measurement": "IC50", "setting": "mNaV1.6; read-out: IC50 NaV1.6 (Table 4), n > 5, ±SD", "result": "> 100", "unit": "µM"}, {"measurement": "inhibition at 100 µM", "setting": "mNaV1.6", "result": 41, "unit": "%"}, {"measurement": "IC50", "setting": "rNaV1.7", "result": "> 100", "unit": "µM"}, {"measurement": "IC50", "setting": "rNaV1.8", "result": "> 100", "unit": "µM"}, {"measurement": "inhibition at 100 µM", "setting": "rNaV1.8", "result": 0, "unit": "%"}]}, {"compound": "C[C@@H]1NC(=O)[C@H](CCCCN)NC(=O)[C@H](CCCNC(=N)N)NC(=O)[C@H](CCCNC(=N)N)NC(=O)[C@@H](N)CSSC[C@@H](C(N)=O)NC(=O)[C@H](CCCNC(=N)N)NC(=O)[C@H](CC(N)=O)NC(=O)[C@H](Cc2c[nH]c3ccccc23)NC(=O)[C@H](CCCNC(=N)N)NC1=O", "note": "[PnCS1[W4K], CRRKARWNRC ^*] (H-CRRKARWNRC-NH2; disulfide 1-10)", "values": [{"measurement": "IC50", "setting": "hNaV1.1", "result": "0.4 ± 0.2", "unit": "µM"}, {"measurement": "IC50", "setting": "rNaV1.2", "result": "0.5 ± 0.4", "unit": "µM"}, {"measurement": "inhibition at 100 µM", "setting": "rNaV1.2", "result": 75, "unit": "%"}, {"measurement": "IC50", "setting": "rNaV1.3", "result": "1.3 ± 0.4", "unit": "µM"}, {"measurement": "IC50", "setting": "rNaV1.4", "result": "0.7 ± 0.4", "unit": "µM"}, {"measurement": "inhibition at 100 µM", "setting": "rNaV1.4", "result": 94, "unit": "%"}, {"measurement": "IC50", "setting": "hNaV1.5", "result": "2.7 ± 0.5", "unit": "µM"}, {"measurement": "inhibition at 100 µM", "setting": "hNaV1.5", "result": 89, "unit": "%"}, {"measurement": "IC50", "setting": "mNaV1.6", "result": "0.7 ± 0.4", "unit": "µM"}, {"measurement": "inhibition at 100 µM", "setting": "mNaV1.6", "result": 92, "unit": "%"}, {"measurement": "IC50", "setting": "rNaV1.7", "result": "7.4 ± 0.5", "unit": "µM"}, {"measurement": "IC50", "setting": "rNaV1.8", "result": "> 100", "unit": "µM"}, {"measurement": "inhibition at 100 µM", "setting": "rNaV1.8", "result": 0, "unit": "%"}]}, {"compound": "C[C@@H]1NC(=O)[C@H](Cc2ccc(O)cc2)NC(=O)[C@H](CCCNC(=N)N)NC(=O)[C@H](CCCNC(=N)N)NC(=O)[C@@H](N)CSSC[C@@H](C(N)=O)NC(=O)[C@H](CCCNC(=N)N)NC(=O)[C@H](CC(N)=O)NC(=O)[C@H](Cc2c[nH]c3ccccc23)NC(=O)[C@H](CCCNC(=N)N)NC1=O", "note": "[PnCS1[W4Y], CRRYARWNRC ^*] (H-CRRYARWNRC-NH2; disulfide 1-10)", "values": [{"measurement": "IC50", "setting": "rNaV1.2", "result": "> 100", "unit": "µM"}, {"measurement": "inhibition at 100 µM", "setting": "rNaV1.2", "result": 39, "unit": "%"}, {"measurement": "IC50", "setting": "rNaV1.4", "result": "> 100", "unit": "µM"}, {"measurement": "inhibition at 100 µM", "setting": "rNaV1.4", "result": 33, "unit": "%"}, {"measurement": "IC50", "setting": "hNaV1.5", "result": "> 100", "unit": "µM"}, {"measurement": "inhibition at 100 µM", "setting": "hNaV1.5", "result": 43, "unit": "%"}, {"measurement": "IC50", "setting": "mNaV1.6", "result": "> 100", "unit": "µM"}, {"measurement": "inhibition at 100 µM", "setting": "mNaV1.6", "result": 42, "unit": "%"}, {"measurement": "IC50", "setting": "rNaV1.8", "result": "> 100", "unit": "µM"}, {"measurement": "inhibition at 100 µM", "setting": "rNaV1.8", "result": 0, "unit": "%"}, {"measurement": "% inhibition, range across NaV1.2, NaV1.4, NaV1.5 and NaV1.6", "setting": "[1]", "result": "33–43%"}]}, {"compound": "C[C@@H]1NC(=O)[C@H](Cc2c[nH]c3ccccc23)NC(=O)[C@H](CCCNC(=N)N)NC(=O)[C@H](CCCNC(=N)N)NC(=O)[C@@H](N)CSSC[C@@H](C(N)=O)NC(=O)[C@H](CCCNC(=N)N)NC(=O)[C@H](CC(N)=O)NC(=O)[C@H](Cc2ccc(O)cc2)NC(=O)[C@H](CCCNC(=N)N)NC1=O", "note": "[PnCS1[W7Y], CRRWARYNRC ^*] (H-CRRWARYNRC-NH2; disulfide 1-10)", "values": [{"measurement": "IC50", "setting": "hNaV1.1", "result": "2.2 ± 0.4", "unit": "µM"}, {"measurement": "IC50", "setting": "rNaV1.2", "result": "7.4 ± 4.2", "unit": "µM"}, {"measurement": "inhibition at 100 µM", "setting": "rNaV1.2", "result": 76, "unit": "%"}, {"measurement": "IC50", "setting": "rNaV1.3", "result": "4.1 ± 0.8", "unit": "µM"}, {"measurement": "IC50", "setting": "rNaV1.4", "result": "7.8 ± 3.3", "unit": "µM"}, {"measurement": "inhibition at 100 µM", "setting": "rNaV1.4", "result": 73, "unit": "%"}, {"measurement": "IC50", "setting": "hNaV1.5", "result": "11.7 ± 4.1", "unit": "µM"}, {"measurement": "inhibition at 100 µM", "setting": "hNaV1.5", "result": 75, "unit": "%"}, {"measurement": "IC50", "setting": "mNaV1.6", "result": "0.7 ± 0.3", "unit": "µM"}, {"measurement": "inhibition at 100 µM", "setting": "mNaV1.6", "result": 93, "unit": "%"}, {"measurement": "IC50", "setting": "rNaV1.7", "result": "8.2 ± 0.3", "unit": "µM"}, {"measurement": "IC50", "setting": "rNaV1.8", "result": "> 100", "unit": "µM"}, {"measurement": "inhibition at 100 µM", "setting": "rNaV1.8", "result": 0, "unit": "%"}, {"measurement": "% inhibition, range across NaV1.2, NaV1.4, NaV1.5 and NaV1.6", "setting": "[1]", "result": "73–93%"}]}, {"compound": "μ-Conotoxin KIIIA [μ-KIIIA]", "values": [{"measurement": "analgesic activity in inflammatory pain models", "setting": "inflammatory pain models", "result": "analgesic in inflammatory pain models without motor impairment"}]}]}
